According to patent publication EP4806435A1, “DIHYDROCHROMENE-DERIVATIVE-CONTAINING THERAPEUTIC AGENT FOR CANCER” (Sumitomo Pharma Co., Ltd., priority 2023, dated 2025):

How the values were obtained:
[1] = system: U-87 cells (IDH1 wild-type); test: Cytotoxicity, sphere culture with LDL, combination with ezetimibe (ATP); type: cell-based, human; settings: 7 days, LDL 5 µg/mL
Protocol: U-87 cells were cultured for 7 days in sphere medium supplemented with LDL at a concentration of 5 µg/mL, with either ezetimibe (a cholesterol absorption inhibitor) added at 3.3, 10, or 30 µM, Compound 1 added at 1 µM, or a combination of both agents. Cell viability was calculated in the same manner as in Example 12, and the cytotoxic effects of each treatment were compared between single-agent and combination conditions.

[2] = target: T1, EBP (Homo sapiens, UniProt Q15125); test: Phase 1 clinical trial: pharmacodynamics, Lathosterol/Zymostenol (L/Z) ratio; type: in vivo; settings: for decrease of mean L/Z ratio: Cycle 1 Day 2 (C1D2), as of April 2024
T1 construct: endogenous in cells; host or cells: Patients with recurrent malignant glioma (WHO grade III or IV), in vivo; sterol ratio assessed in serum
From the text: As of September 2023, pharmacodynamic assessments had clearly shown that Compound 1 inhibited the target, at least in serum. […] (Figure 5)

[3] = system: B16 cells; test: In vivo efficacy, combination with ipilimumab, B16 tumors; set-up: species or system C57BL/6J mice; settings: Compound 1 3 mg/kg or 10 mg/kg once daily + ipilimumab 5 mg/kg once weekly; B16, subcutaneous
Protocol: B16 cells (3 x 10^5) were subcutaneously implanted into C57BL/6J mice (n = 6) to establish tumors. On day 12 after implantation, administration was initiated with Compound 1 at 3 mg/kg or 10 mg/kg (once daily) and ipilimumab (an anti-CTLA-4 antibody) at 5 mg/kg (once weekly), and the efficacy of each monotherapy and the combination therapy was compared.
Tumor volume was calculated using the following formula based on the short and long diameters of the tumor measured with digital calipers (Mitutoyo). [formula]
The antitumor effect was evaluated by comparing the vehicle-treated control group with the test substance-treated group, and calculating T/C using the following formula. [formula]

T1 sequence (Q15125 whole entry): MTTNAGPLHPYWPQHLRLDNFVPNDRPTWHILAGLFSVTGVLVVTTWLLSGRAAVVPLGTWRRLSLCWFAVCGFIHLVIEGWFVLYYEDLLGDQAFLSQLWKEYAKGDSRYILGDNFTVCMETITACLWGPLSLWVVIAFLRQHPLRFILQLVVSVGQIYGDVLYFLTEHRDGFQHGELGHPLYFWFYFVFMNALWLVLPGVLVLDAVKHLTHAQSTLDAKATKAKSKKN

CC1(C)Oc2cc(Cl)ccc2[C@@H]2OCC3(CCN(CCn4ccnc4)CC3)C[C@H]21 [Compound 1, (4'aR,10'bR)-8'-chloro-1-[2-(1H-imidazol-1-yl)ethyl]-5',5'-dimethyl-4'a,10'b-dihydro-2'H,4'H,5'H-spiro[piperidine-4,3'-pyrano[3,2-c][1]benzopyran] diphosphate]
cytotoxicity of the combination of Compound 1 and ezetimibe ([1]; Compound 1 1 µM + ezetimibe 3.3, 10, or 30 µM): potent cytotoxic effects
cytotoxicity, single agent ([1]; Compound 1 at 1 µM): low cytotoxicity
reduction in the L/Z ratio versus lower dose levels ([2]; 480 mg per day (240 mg BID)): did not show a greater reduction in the L/Z ratio than those at the 180-360 mg QD dose levels
decrease of mean L/Z ratio ([2]; 20 mg QD): 70%
decrease of mean L/Z ratio ([2]; 180 mg and 240 mg QD): 95-97%
decrease of mean L/Z ratio ([2]; 360 mg QD): 97.5%
decrease of mean L/Z ratio ([2]; 40-120 mg QD): 85-91%
decrease of L/Z ratio ([2]; Cycle 1 Day 8 (C1D8), 20-360 mg QD, maintained in subsequent cycles): approximately 100%
blood L/Z ratio across dose groups ([2]; from the 180 mg QD to 360 mg QD dose groups): remained at a similar level
decrease of the ratio of lathosterol and zymostenol (L/Z ratio) ([2]; serum, starting from 40 mg QD cohort, as of September 2023): over 80%
antitumor effect in combination with ipilimumab [3]: remarkably pronounced antitumor effect
